Measurements taken from US8633164B2, “Antimicrobial peptides” (priority 2008, dated 2014).
≈ marks a conversion by molar mass, not a printed value. Residues, ends and D or L forms follow the SMILES beside them. No end group written: not given here.

Tests used:
[1] = system: Acinetobacter baumanii ATCC 19606; format: cell-based
Protocol: (§1) The antibacterial activity of the peptides was determined by microdilution susceptibility assays performed in Mueller-Hinton broth. Susceptibility testing was performed following the recommendations of the Clinical Standards Institute (CLSI, formerly NCCLS) [Standards, 2000]. Peptides (2 mg/ml in 4 mM HEPES, pH 7.2) were two-fold diluted in Mueller-Hinton Broth in 96-well microtitre plates to obtain concentrations from 512 to 0.25 μg/ml in a volume of 100 μl. Bacteria were grown on Mueller-Hinton agar plates for 1 to 3 days depending on the growth rate of the bacteria, suspended in 2 ml of 0.9% saline and adjusted to 10^8 CFU/ml. The bacterial suspension was diluted 100-fold in Mueller-Hinton broth, and 0.1 ml of this new dilution (10^5 CFU) was added to the peptide dilutions. The microtiter plates were incubated at 37° C. for 24 h. The minimal inhibitory concentration (MIC) of each peptide against a given bacterial strain was regarded as the minimal concentration of the peptide which prevents the growth of that organism 24 h after inoculation. The bactericidal effect of the peptides was determined, after 24 h incubation at 37° C., by plating 10 μl of the content of non-cloudy wells onto Mueller-Hinton agar plates. Plates were incubated at 37° C. for 1 to 5 days, and a viable count was performed. The minimal bactericidal concentration (MBC) of each peptide for a given bacterial strain was regarded as the minimal concentration of the peptide which kills 99.9% of the colony-forming units (CFU) present in the final inoculum.

[2] = system: Escherichia coli ATCC 25922; format: cell-based
Protocol: as §1

[3] = system: Staphylococcus aureus ATCC 25923; format: cell-based
Protocol: as §1

[4] = system: Stenotrophomonas Maltophilia 3998-00 CUN; format: cell-based
Protocol: as §1

[5] = system: MRSA ATCC 43300; format: cell-based, methicillin-resistant Staphylococcus aureus
Protocol: as §1

[6] = system: MRSA CUN 3792-99; format: cell-based, methicillin-resistant Staphylococcus aureus
Protocol: as §1

[7] = system: LPS; experiment: Animal model of endotoxicity (LPS/galactosamine endotoxic shock, mortality); format: in vivo, mice; settings: mouse, LPS + galactosamine i.p., 150 μg peptide i.p.
Description: The wild-type LPS of E. coli ATCC 35218 and P. aeruginosa PAO1 were obtained from the aqueous phase of a water-phenol extract and purified by treatment with chaotropic agents and detergents.
Female ICR (CD-1) mice weighing 20-23 g were randomly distributed in experimental groups (n=16). Endotoxic shock was induced in the animals by coinoculation of LPS and galactosamine following the method of Galanos et al. Specifically, each animal received an intraperitoneal injection containing a mixture of 0.3 μg of LPS and 18 mg of galactosamine resuspended in 200 μl of endotoxin-free saline.
Immediately after LPS administration, animals were intraperitoneally inoculated with 150 μg of the test peptide resuspended in 150 μl of pyrogen-free saline containing 10% dimethylformamide as solubilizing agent. To facilitate the therapeutical action of the peptide, mice so treated were gently massaged at the site of inoculation for a few seconds. Animal mortality was monitored at 6 h and 12 h postinoculation and at daily intervals for 5 days.
In each independent experiment a group of animals received 150 μl of pyrogen-free saline containing 150 μg of polymyxin B, a lipopeptide with well known antiendotoxic properties, whereas another group was left untreated.
Results of animal mortality at all experimental time points were globally analyzed using the Kaplan-Meier survival analysis. When the survival plots were parallel, data were compared by the Log-Rank test, whereas for those plots that intersected the “Breslow-Gehan-Wilcoxon”. […]

[8] = system: HIV-1 isolate; experiment: Anti-HIV action: inhibition of virus replication in T-cell line PM1; format: cell-based; settings: 20 μg/ml peptide
Protocol: A T-cell line (PM1) was incubated with a HIV-1 isolate and the infected cells were cultivated in peptide-containing medium. After some days the number of viruses was determined as compared to untreated cells. The number of viruses is determined by the concentrations of the HIV-capsid in the supernatant. FIG. 8 depicts the anti-HIV action of the peptides Pep19-2, -4, 6, and 8 at peptide concentrations of 1, 5, 10, and 20 μg/ml.

[9] = system: LPS-induced cytokine expression in human mononuclear cells; experiment: Inhibition of LPS-induced cytokine secretion of human mononuclear cells; format: cell-based; settings: comparison of Pep12, 17-1 and 19-1
Protocol: Human mononuclear cells (MNC): heparinized (20 IU/ml) blood obtained from healthy donors was mixed with an equal volume of Hank's balanced solution, layered over Ficoll, and centrifuged for 40 min (21° C., 500 g). The interphase layer of MNC was collected and washed twice in Hank's medium and then resuspended in RPMI 1640 supplemented with 2 mM L-glutamine, 100 U/ml penicillin, and 100 μg/ml streptomycin. MNC (200 μl/well; 5×10^6 cells/ml) were transferred into 96-well culture plates. Twenty microliters of a mixture containing LPS (100 ng/ml or 10 ng/ml) and Gra-pep (10:1 weight % excess) was added to each well. Supernatants were harvested after 4 h incubation at 37° C. under 5% CO2, and TNFα production was measured in a sandwich-ELISA. TNFα was determined in duplicate at two different dilutions and the values from two independent experiments were averaged.

Row | Compound | MIC [1] [µg/mL] | MBC [2] [µg/mL] | MIC [3] [µg/mL] | MIC [4] [µg/mL] | MIC [5] [µg/mL] | MIC [6] [µg/mL] | MIC [2] [µg/mL] | MBC [3] [µg/mL] | Dead mice/number of mice, 24 h [7] | Dead mice/number of mice, 48 h [7] | Dead mice/number of mice, 72 h [7] | % inhibition of virus replication in a T-cell line [8] [%] | Inhibition of LPS-induced cytokine production [9]
1 | N=C(N)NCCC[C@H](NC(=O)[C@H](Cc1ccc(O)cc1)NC(=O)[C@H](CCCCN)NC(=O)[C@H](CCCCN)NC(=O)CN)C(=O)N[C@@H](CCCNC(=N)N)C(=O)N[C@@H](Cc1ccccc1)C(=O)N[C@@H](CCCNC(=N)N)C(=O)N[C@@H](Cc1c[nH]c2ccccc12)C(=O)N[C@@H](CCCCN)C(=O)N[C@@H](Cc1ccccc1)C(=O)N[C@@H](CCCCN)C(=O)NCC(=O)N[C@@H](CCCCN)C(=O)N[C@@H](Cc1c[nH]c2ccccc12)C(=O)N[C@@H](Cc1ccccc1)C(=O)N[C@@H](Cc1c[nH]c2ccccc12)C(=O)N[C@@H](Cc1ccccc1)C(=O)NCC(N)=O [Pep 19-4, GKKYRRFRWKFKGKWFWFG] (H-GKKYRRFRWKFKGKWFWFG-NH2) | 16 (≈ 6.13 µM) | 15.6 (≈ 5.98 µM) | 15.6 (≈ 5.98 µM) | 32 (≈ 12.3 µM) | 16 (≈ 6.13 µM) | 16 (≈ 6.13 µM) |  |  |  |  |  |  | 
2 | CC(C)C[C@H](NC(=O)[C@H](Cc1c[nH]c2ccccc12)NC(=O)[C@H](CC(C)C)NC(=O)[C@H](CCCCN)NC(=O)[C@H](CCC(N)=O)NC(=O)[C@H](CCCCN)NC(=O)[C@H](CS)NC(=O)[C@H](CCCCN)NC(=O)[C@H](CC(C)C)NC(=O)[C@H](CCCCN)NC(=O)[C@H](Cc1ccccc1)NC(=O)[C@H](CCCNC(=N)N)NC(=O)[C@H](CCCNC(=N)N)NC(=O)[C@H](Cc1ccccc1)NC(=O)[C@H](CCCCN)NC(=O)[C@H](CCCCN)NC(=O)[C@H](CS)NC(=O)CN)C(=O)N[C@@H](Cc1c[nH]c2ccccc12)C(=O)N[C@@H](CS)C(=O)NCC(N)=O [Pep 19-6] (H-GCKKFRRFKLKCKQKLWLWCG-NH2) | 64 (≈ 24.1 µM) | >500 | >500 | 1024 (≈ 385 µM) | 64 (≈ 24.1 µM) | 32 (≈ 12 µM) | >500 | >500 |  |  |  |  | 
3 | KKYRRFRWKFKGKFWFW (Synthetic antimicrobial peptide 1Pep17-2) [Pep 17-2] |  |  |  |  |  |  |  |  | 7/10 | 7/10 | 8/11 |  | 
4 | N=C(N)NCCC[C@H](NC(=O)CNC(=O)[C@H](CCCNC(=N)N)NC(=O)[C@H](Cc1ccccc1)NC(=O)[C@H](CCCCN)NC(=O)[C@H](Cc1c[nH]c2ccccc12)NC(=O)[C@H](CCCNC(=N)N)NC(=O)[C@H](Cc1ccccc1)NC(=O)[C@H](CCCNC(=N)N)NC(=O)[C@H](CCCNC(=N)N)NC(=O)[C@H](Cc1ccc(O)cc1)NC(=O)[C@H](CCCCN)NC(=O)[C@H](CCCCN)NC(=O)CN)C(=O)N[C@@H](Cc1ccccc1)C(=O)N[C@@H](Cc1c[nH]c2ccccc12)C(=O)N[C@@H](Cc1ccccc1)C(=O)N[C@@H](Cc1c[nH]c2ccccc12)C(=O)NCC(N)=O [Pep 19-5, GKKYRRFRWKFRGRFWFWG] (H-GKKYRRFRWKFRGRFWFWG-NH2) | 16 (≈ 6.01 µM) | 15.6 (≈ 5.86 µM) | 15.6 (≈ 5.86 µM) | 64 (≈ 24 µM) | 16 (≈ 6.01 µM) | 16 (≈ 6.01 µM) | 15.6 (≈ 5.86 µM) |  |  |  |  | 99 | 
5 | N=C(N)NCCC[C@H](NC(=O)[C@H](Cc1ccc(O)cc1)NC(=O)[C@H](CCCCN)NC(=O)[C@H](CCCCN)NC(=O)CN)C(=O)N[C@@H](CCCNC(=N)N)C(=O)N[C@@H](Cc1ccccc1)C(=O)N[C@@H](Cc1c[nH]c2ccccc12)C(=O)N[C@@H](CCCCN)C(=O)N[C@@H](Cc1ccccc1)C(=O)N[C@@H](CCCCN)C(=O)NCC(=O)N[C@@H](CCCCN)C(=O)N[C@@H](Cc1c[nH]c2ccccc12)C(=O)N[C@@H](Cc1ccccc1)C(=O)N[C@@H](Cc1ccccc1)C(=O)N[C@@H](Cc1c[nH]c2ccccc12)C(=O)NCC(N)=O [Pep 19-7, GKKYRRFWKFKGKWFFWG] (H-GKKYRRFWKFKGKWFFWG-NH2) | 16 (≈ 6.53 µM) | >500 | >500 | 645 (≈ 263 µM) | 16 (≈ 6.53 µM) | 16 (≈ 6.53 µM) | >500 | >500 |  |  |  |  | 
6 | N=C(N)NCCC[C@H](NC(=O)CNC(=O)[C@H](CCCCN)NC(=O)[C@H](Cc1ccccc1)NC(=O)[C@H](CCCCN)NC(=O)[C@H](Cc1c[nH]c2ccccc12)NC(=O)[C@H](CCCNC(=N)N)NC(=O)[C@H](Cc1ccccc1)NC(=O)[C@H](CCCCN)NC(=O)[C@H](CCCCN)NC(=O)[C@H](Cc1ccc(O)cc1)NC(=O)[C@H](CCCNC(=N)N)NC(=O)[C@H](CCCNC(=N)N)NC(=O)CN)C(=O)N[C@@H](Cc1c[nH]c2ccccc12)C(=O)N[C@@H](Cc1ccccc1)C(=O)N[C@@H](Cc1c[nH]c2ccccc12)C(=O)N[C@@H](Cc1ccccc1)C(=O)NCC(N)=O [Pep 19-8, GRRYKKFRWKFKGRWFWFG] (H-GRRYKKFRWKFKGRWFWFG-NH2) | 16 (≈ 6.07 µM) |  |  | 32 (≈ 12.1 µM) | 8 (≈ 3.03 µM) | 8 (≈ 3.03 µM) |  |  |  |  |  | 99 | 
7 | N=C(N)NCCC[C@H](NC(=O)[C@H](Cc1ccc(O)cc1)NC(=O)[C@H](CCCCN)NC(=O)[C@H](CCCCN)NC(=O)[C@H](CS)NC(=O)CN)C(=O)N[C@@H](CCCNC(=N)N)C(=O)N[C@@H](Cc1ccccc1)C(=O)N[C@@H](CCCNC(=N)N)C(=O)N[C@@H](Cc1c[nH]c2ccccc12)C(=O)N[C@@H](CCCCN)C(=O)N[C@@H](Cc1ccccc1)C(=O)N[C@@H](CCCCN)C(=O)NCC(=O)N[C@@H](CCCCN)C(=O)N[C@@H](Cc1ccccc1)C(=O)N[C@@H](Cc1c[nH]c2ccccc12)C(=O)N[C@@H](Cc1ccccc1)C(=O)N[C@@H](Cc1c[nH]c2ccccc12)C(=O)N[C@@H](CS)C(=O)NCC(N)=O [Pep 19-2] (H-GCKKYRRFRWKFKGKFWFWCG-NH2) | 64 (≈ 22.7 µM) | 512 (≈ 182 µM) | 128 (≈ 45.5 µM) | 512 (≈ 182 µM) | 128 (≈ 45.5 µM) | 1024 (≈ 364 µM) | 128 (≈ 45.5 µM) | 512 (≈ 182 µM) | 0/10 | 0/10 | 0/10 |  | 
8 | polymyxin B [PMB, reference compound] |  |  |  |  |  |  |  |  | 0/10 | 0/10 | 0/10 |  | 
9 | GCKKFRRLKWKYKGKFWFWCG (GCKKFRRLKWKYKGKFWFWCG-NH2; cysteine pairing not given here) [Pep 19-1] |  |  |  |  |  |  |  |  |  |  |  |  | inhibits most strongly
10 | KKFRRLKWKYKGKFWFW (Synthetic antimicrobial peptide 1Pep17-1) [Pep 17-1] |  |  |  |  |  |  |  |  | 7/11 | 7/11 | 8/11 |  | 
